In patent US9340788B2 (priority 2007, dated 2016):

Columns and labels:
HCMV [1] = assay: Viral attachment and internalization assay (pp65 immunofluorescence); type: cell-based, Human cytomegalovirus
Description: (A) HEL cells were pretreated with PBS (20 min 4° C.), IMC-3G3 (2 h, 37° C., 10 μg/ml), or PDGF-AA (20 min, 4° C., 10 ng/ml) prior to infection with HCMV (MOI of 1, 4° C., 1 h). Cells were returned to 37° C. for 30 minutes, and processed for pp65^HCMV and PDGFRα double immunofluorescence. […] All conditions were assayed in triplicate cultures. One hundred cells in 4 low magnification fields were counted. Bars represent SD.
Viral Attachment and Internalization Assays. Mouse fibroblasts and HEL cells (72 hours following siRNA transfections) were incubated with HCMV (MOI of 0.5) or mock treated for 1 hour at 4° C., after which cells were returned to 37° C. for 15, 30, or 60 min. Cells were fixed using methanol (20 min) and processed for pp65 immunofluorescence. Four low power fields were counted for each condition and pp65 positive were recorded for each 100 cells. Internalization assays were repeated twice.

HCMV [2] = assay: HCMV IE1 / viral gene expression, western blot of infected cells; type: cell-based, Human cytomegalovirus; settings: for HCMV IE1 gene expression: IMC-3G3 10 μg/ml 12 h or Gleevec 100 nM 1 h pre-treatment, western blot
Description: (A) pp65 immunofluorescence after HCMV treatment (1 h, 4° C.) followed by shifting to 37° C. for indicated times. Rows represent (top to bottom): HEL, PDGFRα null fibroblasts, parental fibroblasts, null fibroblasts overexpressing hPDGFRα, HEL transfected with control, or PDGFRα siRNA. Nuclei were stained with DAPI. (B) Average±S.D. pp65 positive/100 cells counted in triplicate from (A). (C) Mock or HCMV infected cells were analyzed by western blotting with the indicated antibodies. Lanes 1-4 indicate HEL, 325S, PDGFRα null and PDGFRα null over-expressing hPDGFRα, respectively. (D) HEL transfected with control or PDGFRα siRNA were mock (lanes 1) or HCMV-treated (lanes 2) and subjected to western blots with indicated antibodies. (E) Western blot of HEL and U87 lysates after infection with mock (lanes 1), HCMV (lanes 2), or HCMV pretreated with IMC-3G3 (10 μg/ml, 12 h, lanes 3) or Gleevec (100 nM, 1 h, lanes 4). (F) PDGFRα siRNA treated cells infected with indicated HCMV strains and immunostained for IE1 12 hpi (primary infection). 6 dpi, supernatants were used to infect naïve HEL cells, followed by IE1 immunostaining and quantification (secondary infection). Average (n=6) values±S.D. are shown.
HUVEC cells were pre-treated with IMC-3G3 (10 μg/ml, Imclone, 12 h), or Gleevec (100 nM, 1 h) prior to HCMV or mock infection. 12 hours post-infection, cell lysates were analyzed by western blot for the presence of IE1 gene product. […] The same blot was stripped and re-probed for actin (lower panel). Lane designation is 1—Mock, 2—HCMV, 3—IMC-3G3+HCMV, 4—Gleevec+HCMV.
Upper panel: HEL cells pretreated with anti-human PDGFRα antibody (10 ng/ml, for 30 min, clone AF-307-NA from R&D; lanes 1 and 3) or with AG 1295 (lane 4, […], from Calbiochem) were stimulated with Towne HCMV (lanes 2 through 4) or Mock infected (lane 1) for 10 min at 37 C. Cells were washed and further incubated for 2 h at 37 C (to allow expression of IE1 gene product). Afterwards, cells were harvested in RIPA buffer and processed for western blotting as described.
Western Blot, Immunoprecipitation, and Immunofluorescence analyses. For stimulation experiments, cells were serum-starved for 24 h, followed by stimulation with HCMV (MOI of 0.5), PDGF-AA (5-10 ng/ml, from R&D Systems), or mock, for 10 minutes. In some cases, cells were pre-treated with IMC-3G3 (ImClone Inc.) at 10 µg/ml (2 or 12 h) or Gleevec® (100 nM, 1 h) prior to HCMV exposure. Cell lysates were analyzed by SDS-PAGE. Antibodies used were as follows: polyclonal anti-PDGFRα ( 1/500), phosphor-Tyrosine clone 4G10 ( 1/1000), and monoclonal anti-p85 PI3-K ( 1/1000), (Upstate Biotechnology), anti HCMV IE1 MAB810 (Chemicon; 1/1000), anti HCMV pp65 (Novocastra, 1/1000), anti-phosphor-PDGFRα ( 1/500, pTyr 754), anti-phosphor-Akt (Ser 473, 1/1000) and total Akt ( 1/1000; all from Cell Signaling). Anti-actin polyclonal control antibody was used ( 1/500, Sigma). Immunoprecipitations were performed using protein G (Pierce) according to manufacturer's instructions. For immunofluorescence, monoclonal HCMV pp65 and phosphor-PDGFRα (p-Tyr 754, Santa Cruz Biotechnology) were used, overnight at 4° C., followed by 1 hour incubation with secondary antibodies conjugated to Alexa-488, or Alexa 568 ( 1/5,000, Molecular Probes). Nuclei were counterstained with DAPI. Co-immunoprecipitation experiments were performed using full length soluble purified recombinant gB (gB 680, from Don Diamond, City of Hope, Calif.) and detergent soluble extract of HEL cells generated in lysis buffer (1% NP-40, 75 mM NaCl and 50 mM Tris-HCl). 500 μg of protein from total cell extract was incubated with 25 μg of gB 680 in lysis buffer in the presence of an anti-gB (Virusys, Inc) or anti-PDGFRα (R&D) antibody overnight at 4° C. Immune complexes were recovered with protein A-Sepharose beads (2 hr incubation), denatured and separated on SDS-PAGE for western blot with anti-gB (Virusys, Inc) or anti-PDGFRα (Cell Signaling Technology) antibodies.

PI3-K/Akt signaling = type: cell-based, human; settings: HEL; 10 min stimulation; IMC-3G3 2 μg/ml or Gleevec 100 nM; p-Akt Ser 473
Description: (A) HEL cells stimulated with HCMV or PDGF-AA were subjected to immunoprecipitation and western blot analyses with indicated antibodies. (B) Phospho-PDGFRα ELISA of cells+/−pretreatment with IMC-3G3 (10 μg/ml, 2 h) followed by HCMV (MOI=1) or PDGF (10 ng/ml) for 10 min. Mean values (n=6)±S.D are shown. (C) Western blot of HEL mock, HCMV, or PDGF-AA stimulated (10 min), +/−IMC-3G3 (2 μg/ml) or Gleevec® (Imatinib) (100 nM). The same membrane was used for p-Akt^Ser 473 and Akt.
HEL cells pretreated with blocking reagents (as indicated; 30 min, 37 C) were stimulated for 10 min with HCMV, PDGF-AA (5 ng/ml), or mock-treated. Cell lysates were collected in RIPA buffer (supplemented with protease and phosphatase inhibitors) and subjected to Western blot analysis.
For stimulation experiments, cells were serum-starved for 24 h, followed by stimulation with HCMV (MOI of 0.5), PDGF-AA (5-10 ng/ml, from R&D Systems), or mock, for 10 minutes. In some cases, cells were pre-treated with IMC-3G3 (ImClone Inc.) at 10 g/ml (2 or 12 h) or Gleevec® (100 nM, 1 h) prior to HCMV exposure. Cell lysates were analyzed by SDS-PAGE. Antibodies used were as follows: polyclonal anti-PDGFRα ( 1/500), phosphor-Tyrosine clone 4G10 ( 1/1000), and monoclonal anti-p85 PI3-K ( 1/1000), (Upstate Biotechnology), anti HCMV IE1 MAB810 (Chemicon; 1/1000), anti HCMV pp65 (Novocastra, 1/1000), anti-phosphor-PDGFRα ( 1/500, pTyr 754), anti-phosphor-Akt (Ser 473, 1/1000) and total Akt ( 1/1000; all from Cell Signaling). Anti-actin polyclonal control antibody was used ( 1/500, Sigma). Immunoprecipitations were performed using protein G (Pierce) according to manufacturer's instructions.

[3] = human epithelial, endothelial, and fibroblast cells

IMC-3G3: humanized PDGFRα blocking antibody (ImClone Inc.)
inhibition of HCMV entry (pp65 positive cells) (HCMV [1]; HEL cells, IMC-3G3 2 h, 37° C., 10 μg/ml, PDGF-AA 20 min, 4° C., 10 ng/ml, HCMV MOI of 1, 30 min at 37° C.): ~45% | HCMV viral internalization (HCMV [1]; [3]): completely inhibited | HCMV IE1 gene expression (HCMV [2]; HEL cells): completely inhibited | HCMV IE1 expression (HCMV [2]; HUVEC, pre-treated with IMC-3G3 10 μg/ml 12 h or Gleevec 100 nM 1 h, western blot 12 hours post-infection): completely inhibited | HCMV IE1 gene expression (HCMV [2]; U87 glioma cells): completely inhibited | HCMV gene expression (HCMV [2]; [3]): completely inhibited | Akt phosphorylation induced by either HCMV or PDGF-AA (PI3-K/Akt signaling): abolished
